Structures can show the parent of a compound that is named as a salt.
What was measured:
[1] = tested on: isolated guinea pig ileum; details: cited from earlier work
[2] = target: T1, postsynaptic muscarinic cholinergic receptors on intestinal (ileal-longitudinal) smooth muscle (Cavia porcellus, UniProt H0W1Z3); experiment: Antimuscarinic Test Protocol: antagonism of carbachol-induced contraction of ileum strips (Table 1); format: cell-based, guinea pig; details: carbachol as agonist, read-out: Anti-muscarinic Activity Kb
T1 construct: The longitudinal muscle, with the myenteric plexus attached, is separated from the underlying circular muscle; from tissue; host or cells: guinea pig ileum, longitudinal muscle strip with myenteric plexus attached
Procedure: Antimuscarinic Test Protocol.
Male albino guinea pigs are killed by decapitation or cervical dislocation. The cavity is opened and the small intestine is removed, with about 10 cm of the terminal ileum being discarded. The intestine is placed in a Petri dish that contains Tyrodes solution (137 mM NaCl, 2.78 mM KCl, 1.8 mM CaCl2.2H2 O, 1.1 mM MgCl2.6H2 O, 0.4 mM […], 11.8 mM NaHCO3, 5.6 mM dextrose) and cut into 3-4 cm segments. The segments are preferentially taken from the aboral end of the ileum. Each segment is carefully stretched onto a glass rod 6 mm in diameter and the remaining mesenteric tissue is cut away. The longitudinal muscle, with the myenteric plexus attached, is separated from the underlying circular muscle by gently stroking with a cotton-tipped applicator soaked in Tyrodes solution on a tangent away from the shallow longitudinal incisions made parallel to the mesenteric attachment. Using gentle traction, and taking care to keep the segment moist throughout the whole procedure, the tissue is stripped from the whole length of the segment (Paton and Zar, J. Physiol. 194:13, 1968).
Tissues are suspended with 5-0 silk suture in 10 mL water-jacketed glass tissue baths containing Tyrodes solution maintained at 37° C. and aerated with 95% O2 /5% CO2. The suture connects each tissue to an isometric force-displacement transducer (Grass or Gould) coupled to a physiograph. Each preparation is suspended under a resting tension of 0.3 g and allowed to equilibrate for 36 minutes. During this period, the baths are emptied and filled every 12 minutes with 10 mL of warm Tyrodes solution. At the end of this equilibration period, each muscle strip is conditioned by adding 10 mM carbachol to the baths. The drug remains in contact with each tissue for 1-2 minutes and then is removed from the bath with 4 rapid rinses of 10 mL of warm Tyrodes solution. The preparations are allowed to recover for an additional 12 minutes before being used in experiments.
Carbachol is dissolved in saline to produce 2×10^-2 M stock concentrations. Serial dilutions (1:10) in saline or water are made from the stock solution. Appropriate volumes of these solutions are added cumulatively to the 10 mL tissue baths in order to obtain the desired bath concentrations.
Compounds that are soluble in water or saline are dissolved in these solvents to produce 2×10^-2 or 2×10^-3 M stock concentrations. Small amounts of 1 N HCl, NaOH, or 95 ethanol may be added for those agents that are not soluble in water or saline alone. […] in dimethylsulfoxide (DMSO) to produce 4×10^-2 M stock solutions. Serial dilutions (1:10) in water are made from the stock solution. Other solvents may be used when appropriate and will be specifically described in the experimental procedure. Appropriate volumes are then added to the baths in order to obtain the desired bath concentrations.
Appropriate volumes of carbachol solutions are cumulatively added to the 10 mL tissue baths to increase the concentration of carbachol in the bath step-by-step without washing out after each single dose. With each concentration step, the tissue contracts isometrically. The next concentration is added only after the preceding contraction has reached a steady value. […] The tissue is then washed with 4 rapid rinses of 10 mL of warm Tyrodes solution and allowed to recover for 12 minutes [Van Rossum et al., Arch. Int. Pharmacodyn. 143:240, (1963) and 143:299, (1963)]. Antagonism of carbachol responses in the presence of antagonist is determined by repeating the cumulative addition procedure after the tissue has been exposed to the […] for 5 minutes.
Three or four different concentrations of antagonist are studied in the same preparations. Responses are expressed relative to the maximum contraction elicited by carbachol in the absence of antagonist.

T1 sequence (H0W1Z3 1-590): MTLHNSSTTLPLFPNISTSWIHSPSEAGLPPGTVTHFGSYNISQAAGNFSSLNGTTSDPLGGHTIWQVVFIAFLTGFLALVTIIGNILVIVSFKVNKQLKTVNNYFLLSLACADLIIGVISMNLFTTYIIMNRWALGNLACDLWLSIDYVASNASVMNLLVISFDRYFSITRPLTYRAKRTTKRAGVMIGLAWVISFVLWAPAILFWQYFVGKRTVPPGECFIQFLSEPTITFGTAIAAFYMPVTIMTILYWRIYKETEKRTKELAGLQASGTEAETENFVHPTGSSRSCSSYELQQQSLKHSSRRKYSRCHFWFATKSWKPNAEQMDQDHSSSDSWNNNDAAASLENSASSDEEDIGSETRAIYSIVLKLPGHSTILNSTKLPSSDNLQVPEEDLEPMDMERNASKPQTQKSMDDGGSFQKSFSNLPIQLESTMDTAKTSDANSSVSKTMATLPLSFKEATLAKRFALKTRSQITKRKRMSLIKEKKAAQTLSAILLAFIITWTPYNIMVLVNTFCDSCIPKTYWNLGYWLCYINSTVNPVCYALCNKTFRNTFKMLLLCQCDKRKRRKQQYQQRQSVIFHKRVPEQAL

For `CN(C)CC1CC(c2ccccc2)(c2ccccc2)OC1=O` (centres unmarked) [3-[(dimethylamino)methyl]-4,5-dihydro-5,5-diphenyl-2(3H)furanone], the “prevention of contractions of isolated guinea pig ileum” value [1] is given as “prevents contractions of isolated guinea pig ileum”.
Work on `CC[n+]1cccn1CC1CC(c2ccccc2)(c2ccccc2)C(=O)O1` (centres unmarked) [Ethyl dihydro-3,3-diphenyl-5-(1H-pyrazol-1-ylmethyl)-2(3H)-furanone chloride] yielded a Kb [2] of 0.049 µM.
Work on `Cc1cn(CC2CC(c3ccccc3)(c3ccccc3)C(=O)O2)[n+](C)c1` (centres unmarked) [Methyl dihydro-5-[(4-methyl-1H-pyrazol-1-yl)methyl]-3,3-diphenyl-2(3H)-furanone chloride hydrate] yielded a Kb [2] of 0.117 µM.
Work on `Cc1ccn(CC2CC(c3ccccc3)(c3ccccc3)C(=O)O2)[n+]1C` (centres unmarked) [Methyl dihydro-5-[(3-methyl-1H-pyrazol-1-yl)methyl]-3,3-diphenyl-2(3H)-furanone chloride hydrate] yielded a Kb [2] of 0.142 µM.
`CC[n+]1c(C)ccn1CC1CC(c2ccccc2)(c2ccccc2)C(=O)O1` (centres unmarked) [Ethyl dihydro-5-[(3-methyl-1H-pyrazol-1-yl)methyl]-3,3-diphenyl-2(3H)-furanone chloride hydrate] showed a Kb [2] of 0.052 µM.
In the case of `O=C1OC(Cn2cccn2)CC1(c1ccccc1)c1ccccc1` (centres unmarked) [Dihydro-3,3-diphenyl-5-(1H-pyrazol-1-ylmethyl)-2(3H)-furanone], the Kb [2] was 0.05 µM.
With `Cc1cc(C)n(CC2CC(c3ccccc3)(c3ccccc3)C(=O)O2)n1` (centres unmarked) [Dihydro-5-[(3,5-dimethyl-1H-pyrazol-1-yl)methyl]-3.3-diphenyl-2(3H)-furanone hydrochloride] the Kb [2] was 1 µM.
In the case of `Cc1cnn(CC2CC(c3ccccc3)(c3ccccc3)C(=O)O2)c1` (centres unmarked) [Dihydro-5-[(4-methyl-1H-pyrazol-1-yl)methyl]-3,3-diphenyl-2(3H)-furanone], the Kb [2] was 0.251 µM.
For `CC[n+]1cc(C)cn1CC1CC(c2ccccc2)(c2ccccc2)C(=O)O1` (centres unmarked) [Ethyl dihydro-5-[(4-methyl-1H-pyrazol-1-yl)methyl]-3,3-diphenyl-2(3H)-furanone chloride hydrate], the Kb [2] was 0.148 µM.
Work on `C[n+]1cccn1CC1CC(c2ccccc2)(c2ccccc2)C(=O)O1` (centres unmarked) [Methyl dihydro-3,3-diphenyl-5-(1H-pyrazol-1-ylmethyl)-2(3H)-furanone chloride hydrate] yielded a Kb [2] of 0.1 µM.
Molecule `Cc1ccn(CC2CC(c3ccccc3)(c3ccccc3)C(=O)O2)n1` (centres unmarked) [Dihydro-5-[(3-methyl-1H-pyrazol-1-yl)methyl]-3,3-diphenyl-2(3H)-furanone] has a Kb [2] of 0.239 µM.
